Patent US20090093069A1, “Topiramate Immunoassays” (ARK Diagnostics, Inc., priority 2007, published 2009)
Like-named read-outs stand apart in the source and are kept apart here.

Assays:
[1] = system: rabbit polyclonal antibody #11341; experiment: ARK homogeneous enzyme immunoassay, topiramate calibration curve on HITACHI 917; format: binding; conditions: conjugate 12-G6PDH
Protocol: Rabbit polyclonal antibody […] was used to generate a calibration curve, and evaluate assay precision, accuracy and specificity. The antibody was added into the antibody diluent to prepare the antibody reagent. The antibody reagent consists of antibody as prepared above, buffer, stabilizers, preservatives, and the substrates for the enzyme conjugate NAD and glucose 6 phosphate. Enzyme conjugate comprising compound (12-G6PDH) G6PDH was added into the conjugate reagent to prepare the enzyme conjugate reagent. The enzyme conjugate reagent consists of the conjugate, buffer, stabilizers and preservatives. Enzyme conjugate (12-G6PDH) was used with rabbit polyclonal antibody #11341 in examples below. This technique is generally applicable to produce polyclonal antibodies to diacetonefructose derivatives and assess their utility.
The diacetonefructose derivative antibodies and enzyme conjugates may be advantageously used in a homogeneous assay format to detect topiramate in samples. An enzyme immunoassay or ARK Assay, which is a homogeneous enzyme immunoassay experiment, is performed to test the polyclonal antibodies prepared as in Example 17. The ARK Assay for topiramate is conducted using a liquid, ready-to-use, two-reagent kit. A clinical chemistry analyzer useful to set up the assay is HITACHI 917. The HITACHI 917 is an automated biochemistry analyser used by medical laboratories to process biological fluid specimens, such as urine, cerebrospinal fluid, and most commonly, blood. Manufactured by Boehringer Mannheim, the HITACHI 917 is a commonly used routine chemical bichromatic analyzer. Topiramate containing sample is incubated with antibody reagent followed by the addition of the enzyme conjugate reagent. The enzyme conjugate activity decreases upon binding to the antibody. The enzyme conjugate, which is not bound to the antibody, catalyzes the oxidation of glucose 6-phosphate (G6P). The oxidation of G6P is coupled with the reduction of NAD^+ to NADH, which can be measured at 340 nm. The change in the absorbance at 340 nm can be measured spectrophotometrically. The topiramate concentration in a specimen can be measured in terms of G6PDH activity. The increase in the rate at 340 nm is due to the formation of NADH and is proportional to the enzyme conjugate activity. An assay calibration curve is generated using topiramate spiked into negative calibrator matrix (See Example 19 below). The assay rate increases with increasing the concentration of drug in the sample.
Topiramate was dissolved in methanol to give a stock solution of 1000 μg/mL. Pooled human serum was aliquoted in 10 mL portions. Topiramate stock solution was added to the aliquots of human serum in preparing a series of known concentrations of topiramate calibrators ranging from 0 to 60 μg/mL. Similarly, Quality Control samples were prepared (2.0, 10.0 and 40.0 μg/mL). Antibody Reagent was prepared by adding antibody […] to antibody/substrate diluent. The antibody/substrate reagent was assayed with Enzyme Conjugate Reagent (12-G6PDH). Calibration curves were generated on the HITACHI 917 automated clinical chemistry analyzer, as described in Example 18 by assaying each level in duplicate.

[2] = system: antibodies raised with immunogens (10-KLH, 12-KLH, 12-L-KLH, 19-KLH, 22-KLH and 25-KLH); experiment: Enzyme-based assay format, reactivity of antibodies raised with the immunogens; format: binding
Text: All the prepared haptens have utility for KLH and G6PDH bio-conjugation. immunogens (10-KLH, 12-KLH, 12-L-KLH, 19-KLH, 22-KLH and 25-KLH) were used to raise antibodies.

[3] = cited from earlier work
[4] = system: serum proteins; conditions: cited from earlier work
[5] = cited from earlier work; for mean topiramate serum concentration: Lhatoo et al. (2000); for topiramate concentrations: May et al. (2002)
[6] = system: patients with drug refractory (mostly partial) epilepsy; conditions: Stephen et al. (2000), 170 patients, cited from earlier work
[7] = dose escalation add-on studies, morning serum concentrations

For `CC1(C)O[C@@H]2[C@@H](CO[C@@]3(COS(N)(=O)=O)OC(C)(C)O[C@@H]23)O1` [Topiramate, 2,3:4,5-bis-O-(1-methylethylidene)-β-D-fructopyranose sulfamate], the “Reaction Rate (mA/min) Average of Duplicates” value (“Reaction Rate (mA/min) Average” for short) ([1]; topiramate calibrator 3.5 μg/mL in human serum) was 406.0 mA/min, the “Reaction Rate (mA/min) Average” value ([1]; topiramate calibrator 7.5 μg/mL in human serum) was 442.4 mA/min and the “Reaction Rate (mA/min) Average” value ([1]; topiramate calibrator 15.0 μg/mL in human serum) was 478.3 mA/min. The “Reaction Rate (mA/min) Average” value ([1]; topiramate calibrator 30.0 μg/mL in human serum) was 511.6 mA/min, the “Reaction Rate (mA/min) Average” value ([1]; topiramate calibrator 60.0 μg/mL in human serum) was 542.4 mA/min and the “reactivity of the antibodies” value [2] was “good reactivity”. The “change of serum topiramate concentrations” value ([3]; clearance decreased by propranolol, amitriptyline, lithium, and sumatriptan) was “slightly increased”, the Tmax ([3]; following oral ingestion) was 2 to 4 h and the bioavailability ([3]; following oral ingestion) was 81-95%. For the same molecule, the Vd ([3]; human, in vivo) was 0.6 to 1 L/kg, the “fraction of the dose metabolized” value ([3]; human, in vivo) was “Approximately 50%” and the serum half-life ([3]; human, in vivo) was 20 to 30 h. For the same molecule, the half-life ([3]; patients co-prescribed enzyme-inducing AEDs) was “about 12 h”, the “lowering of topiramate concentrations” value ([3]; with valproic acid) was 10-15% and the “bound to serum proteins” value [4] was 15%. The “serum concentrations at which optimal response is most likely” value ([5]; Christensen et al. (2003), concentration-controlled trial) was 2000 to 10000 ng/mL, the serum topiramate concentrations ([5]; Johannessen et al. (2003), patients treated with therapeutic doses, most studies) was 5 to 20 mg/L and the “mean topiramate serum concentration” value ([5]; patients in whom topiramate was stopped because of adverse effects) was 6 mg/L. For the same molecule, the “mean topiramate serum concentration” value ([5]; responders) was 7 mg/L, the “mean topiramate serum concentration” value ([5]; seizure-free patients) was 9 mg/L and the topiramate concentrations ([5]; considerably higher doses (up to 2000 mg/day)) was no more than 27 mg/L. The topiramate concentrations ([5]; doses of 125-400 mg in addition to other AEDs) was 2.4 to 8 mg/L, the “serum topiramate concentrations in patients with improvement (trend)” value ([5]; Penovich et al. (1997), compared with those without seizure reduction) was greater than 10 mg/L and the systemic topiramate concentrations ([5]; considerably higher doses, up to 2000 mg) was no more than 80 µmol·L. The “serum concentrations at which a reduction in seizure control was seen” value [5, 7] was “greater than 75 μmol/L”, the “serum concentrations with significant increase in side effects” value [5, 7] was greater than 60 µM and the “patients with favorable response” value ([6]; wide range of doses and serum concentrations) was 70%. For the same molecule, the patients becoming seizure-free [6] was 23%.
